# Results taken from the OligoGym collection.
# Where “and” joins values, the source holds several entries; their conditions need not be identical. Equal entries are not always repeated. HELM strings list units from the 5' end as sugar, base in round brackets, then linkage (d deoxyribose, r ribose, m 2'-O-methyl, p phosphodiester). Methylation of C is not given here. [moe] = 2'-O-(2-methoxyethyl) (MOE); [cEt] = constrained ethyl (cEt); [sp] = phosphorothioate linkage
# Molecular target: HBV
# Settings: ASO
Substance,"target mRNA inhibition (HepG2, 0.07 µM)",also measured
RNA1{[moe](G)[sp].[moe](A)[sp].d(A)[sp].d(C)[sp].d(T)[sp].d(G)[sp].d(G)[sp].d(A)[sp].d(G)[sp].d(C)[sp].d(C)[sp].[moe](A)[sp].[moe](C)[sp].[moe](C)[sp].[moe](A)[sp].[moe](G)}$$$$V2.0,40% and 18%,
RNA1{[moe](G)[sp].[moe](A)[sp].d(A)[sp].d(G)[sp].d(C)[sp].d(G)[sp].d(A)[sp].d(A)[sp].d(G)[sp].d(T)[sp].d(G)[sp].[moe](C)[sp].[moe](A)[sp].[moe](C)[sp].[moe](A)[sp].[moe](C)}$$$$V2.0,71% and 64%,"target mRNA inhibition (HepG2, 0.0092593 µM): 9%; target mRNA inhibition (HepG2, 0.0277778 µM): 34%; target mRNA inhibition (HepG2, 0.0833333 µM): 53%; target mRNA inhibition (HepG2, 0.25 µM): 81%"
RNA1{[moe](G)[sp].[moe](A)[sp].d(G)[sp].d(G)[sp].d(T)[sp].d(G)[sp].d(A)[sp].d(A)[sp].d(G)[sp].d(C)[sp].d(G)[sp].[moe](A)[sp].[moe](A)[sp].[moe](G)[sp].[moe](T)[sp].[moe](G)[sp].[moe](C)}$$$$V2.0,67% and 63%,
RNA1{[moe](G)[sp].[moe](A)[sp].d(G)[sp].d(T)[sp].d(T)[sp].d(C)[sp].d(C)[sp].d(G)[sp].d(C)[sp].d(A)[sp].d(G)[sp].[moe](T)[sp].[moe](A)[sp].[moe](T)[sp].[moe](G)[sp].[moe](G)}$$$$V2.0,52% and 45%,
RNA1{[moe](G)[sp].[moe](C)[sp].[moe](A)[sp].[moe](C)[sp].[moe](T)[sp].d(A)[sp].d(G)[sp].d(T)[sp].d(A)[sp].d(A)[sp].d(A)[sp].d(C)[sp].d(T)[sp].d(G)[sp].[moe](A)[sp].[moe](G)}$$$$V2.0,60%,
RNA1{[moe](G)[sp].[moe](C)[sp].[moe](A)[sp].[moe](G)[sp].[moe](A)[sp].d(G)[sp].d(G)[sp].d(T)[sp].d(G)[sp].d(A)[sp].d(A)[sp].d(G)[sp].d(C)[sp].d(G)[sp].[moe](A)[sp].[moe](A)[sp].[moe](G)}$$$$V2.0,76% and 59%,
RNA1{[moe](G)[sp].[moe](C)[sp].[moe](A)[sp].[moe](G)[sp].[moe](T)[sp].d(A)[sp].d(T)[sp].d(G)[sp].d(G)[sp].d(A)[sp].d(T)[sp].d(C)[sp].d(G)[sp].d(G)[sp].[moe](C)[sp].[moe](A)}$$$$V2.0,67% and 61%,
RNA1{[moe](G)[sp].[moe](C)[sp].[moe](A)[sp].[moe](G)[sp].d(A)[sp].d(G)[sp].d(G)[sp].d(T)[sp].d(G)[sp].d(A)[sp].d(A)[sp].d(G)[sp].d(C)[sp].[moe](G)[sp].[moe](A)[sp].[moe](A)[sp].[moe](G)}$$$$V2.0,52%,
RNA1{[moe](G)[sp].[moe](C)[sp].[moe](A)[sp].[moe](G)[sp].d(T)[sp].d(A)[sp].d(T)[sp].d(G)[sp].d(G)[sp].d(A)[sp].d(T)[sp].d(C)[sp].d(G)[sp].[moe](G)[sp].[moe](C)[sp].[moe](A)}$$$$V2.0,69% and 61%,
RNA1{[moe](G)[sp].[moe](C)[sp].[moe](A)[sp].d(C)[sp].d(T)[sp].d(A)[sp].d(G)[sp].d(T)[sp].d(A)[sp].d(A)[sp].d(A)[sp].d(C)[sp].[moe](T)[sp].[moe](G)[sp].[moe](A)[sp].[moe](G)}$$$$V2.0,59%,
RNA1{[moe](G)[sp].[moe](C)[sp].[moe](A)[sp].d(G)[sp].d(A)[sp].d(G)[sp].d(G)[sp].d(T)[sp].d(G)[sp].d(A)[sp].d(A)[sp].d(G)[sp].[moe](C)[sp].[moe](G)[sp].[moe](A)[sp].[moe](A)}$$$$V2.0,58% and 64%,
RNA1{[moe](G)[sp].[moe](C)[sp].d(A)[sp].d(C)[sp].d(T)[sp].d(A)[sp].d(G)[sp].d(T)[sp].d(A)[sp].d(A)[sp].d(A)[sp].[moe](C)[sp].[moe](T)[sp].[moe](G)[sp].[moe](A)[sp].[moe](G)[sp].[moe](C)}$$$$V2.0,75% and 78%,
RNA1{[moe](G)[sp].[moe](C)[sp].d(A)[sp].d(C)[sp].d(T)[sp].d(A)[sp].d(G)[sp].d(T)[sp].d(A)[sp].d(A)[sp].d(A)[sp].[moe](C)[sp].[moe](T)[sp].[moe](G)[sp].[moe](A)[sp].[moe](G)}$$$$V2.0,54% and 47%,
RNA1{[moe](G)[sp].[moe](C)[sp].d(A)[sp].d(T)[sp].d(A)[sp].d(G)[sp].d(C)[sp].d(A)[sp].d(G)[sp].d(C)[sp].d(A)[sp].[moe](G)[sp].[moe](G)[sp].[moe](A)[sp].[moe](T)[sp].[moe](G)}$$$$V2.0,39% and 24%,
RNA1{[moe](G)[sp].[moe](G)[sp].[cEt](C)[sp].[cEt](A)[sp].d(T)[sp].d(A)[sp].d(G)[sp].d(C)[sp].d(A)[sp].d(G)[sp].d(C)[sp].d(A)[sp].d(G)[sp].[moe](G)[sp].[cEt](A)[sp].[moe](T)[sp].[moe](G)}$$$$V2.0,,"target mRNA inhibition (HepG2, 0.009375 µM): 27%; target mRNA inhibition (HepG2, 0.01875 µM): 29%; target mRNA inhibition (HepG2, 0.0375 µM): 45%; target mRNA inhibition (HepG2, 0.075 µM): 56%; target mRNA inhibition (HepG2, 0.15 µM): 78%; target mRNA inhibition (HepG2, 0.3 µM): 84%"
RNA1{[moe](G)[sp].[moe](G)[sp].[moe](C)[sp].[moe](A)[sp].d(T)[sp].d(A)[sp].d(G)[sp].d(C)[sp].d(A)[sp].d(G)[sp].d(C)[sp].d(A)[sp].d(G)[sp].[moe](G)[sp].[moe](A)[sp].[moe](T)[sp].[moe](G)}$$$$V2.0,57% and 53%,
RNA1{[moe](G)[sp].[moe](G)[sp].[moe](C)[sp].[moe](A)[sp].d(T)[sp].d(A)[sp].d(G)[sp].d(C)[sp].d(A)[sp].d(G)[sp].d(C)[sp].d(A)[sp].d(G)[sp].[moe](G)[sp].[moe](A)[sp].[moe](T)}$$$$V2.0,57% and 50%,
RNA1{[moe](G)[sp].[moe](G)[sp].[moe](C)[sp].d(A)[sp].d(T)[sp].d(A)[sp].d(G)[sp].d(C)[sp].d(A)[sp].d(G)[sp].d(C)[sp].d(A)[sp].d(G)[sp].[cEt](G)[sp].[cEt](A)[sp].[cEt](T)}$$$$V2.0,56% and 44%,
RNA1{[moe](G)[sp].[moe](G)[sp].[moe](T)[sp].[moe](G)[sp].[moe](A)[sp].d(A)[sp].d(G)[sp].d(C)[sp].d(G)[sp].d(A)[sp].d(A)[sp].d(G)[sp].d(T)[sp].d(G)[sp].[moe](C)[sp].[moe](A)[sp].[moe](C)}$$$$V2.0,64% and 66%,
RNA1{[moe](G)[sp].[moe](G)[sp].[moe](T)[sp].d(G)[sp].d(A)[sp].d(A)[sp].d(G)[sp].d(C)[sp].d(G)[sp].d(A)[sp].d(A)[sp].d(G)[sp].d(T)[sp].[cEt](G)[sp].[cEt](C)[sp].[cEt](A)}$$$$V2.0,72% and 83%,"target mRNA inhibition (HepG2, 0.0092593 µM): 15%; target mRNA inhibition (HepG2, 0.0277778 µM): 42%; target mRNA inhibition (HepG2, 0.0833333 µM): 67%; target mRNA inhibition (HepG2, 0.25 µM): 88%"
RNA1{[moe](G)[sp].[moe](G)[sp].d(C)[sp].d(A)[sp].d(T)[sp].d(A)[sp].d(G)[sp].d(C)[sp].d(A)[sp].d(G)[sp].d(C)[sp].[moe](A)[sp].[moe](G)[sp].[moe](G)[sp].[moe](A)[sp].[moe](T)[sp].[moe](G)}$$$$V2.0,55% and 48%,
RNA1{[moe](G)[sp].[moe](T)[sp].[moe](G)[sp].[moe](A)[sp].[moe](A)[sp].d(G)[sp].d(C)[sp].d(G)[sp].d(A)[sp].d(A)[sp].d(G)[sp].d(T)[sp].d(G)[sp].d(C)[sp].[moe](A)[sp].[moe](C)[sp].[moe](A)}$$$$V2.0,77% and 75%,"target mRNA inhibition (HepG2, 0.0092593 µM): 0%; target mRNA inhibition (HepG2, 0.0277778 µM): 4%; target mRNA inhibition (HepG2, 0.0833333 µM): 32%; target mRNA inhibition (HepG2, 0.25 µM): 62%"
RNA1{[moe](G)[sp].[moe](T)[sp].[moe](G)[sp].[moe](A)[sp].[moe](A)[sp].d(G)[sp].d(C)[sp].d(G)[sp].d(A)[sp].d(A)[sp].d(G)[sp].d(T)[sp].d(G)[sp].d(C)[sp].[moe](A)[sp].[moe](C)}$$$$V2.0,70% and 58%,
RNA1{[moe](G)[sp].[moe](T)[sp].[moe](G)[sp].[moe](A)[sp].d(A)[sp].d(G)[sp].d(C)[sp].d(G)[sp].d(A)[sp].d(A)[sp].d(G)[sp].d(T)[sp].d(G)[sp].[moe](C)[sp].[moe](A)[sp].[moe](C)[sp].[moe](A)}$$$$V2.0,72% and 62%,
RNA1{[moe](G)[sp].[moe](T)[sp].[moe](G)[sp].[moe](C)[sp].[moe](A)[sp].[moe](G)[sp].d(A)[sp].d(G)[sp].d(G)[sp].d(T)[sp].d(G)[sp].d(A)[sp].d(A)[sp].d(G)[sp].d(C)[sp].[moe](G)[sp].[moe](A)}$$$$V2.0,78% and 70%,"target mRNA inhibition (HepG2, 0.0092593 µM): 7%; target mRNA inhibition (HepG2, 0.0277778 µM): 4%; target mRNA inhibition (HepG2, 0.0833333 µM): 38%; target mRNA inhibition (HepG2, 0.25 µM): 76%"
RNA1{[moe](G)[sp].[moe](T)[sp].[moe](G)[sp].d(A)[sp].d(A)[sp].d(G)[sp].d(C)[sp].d(G)[sp].d(A)[sp].d(A)[sp].d(G)[sp].d(T)[sp].[moe](G)[sp].[moe](C)[sp].[moe](A)[sp].[moe](C)}$$$$V2.0,70% and 68%,
RNA1{[moe](G)[sp].[moe](T)[sp].[moe](T)[sp].[moe](C)[sp].d(C)[sp].d(G)[sp].d(C)[sp].d(A)[sp].d(G)[sp].d(T)[sp].d(A)[sp].d(T)[sp].d(G)[sp].[moe](G)[sp].[moe](A)[sp].[moe](T)[sp].[moe](C)}$$$$V2.0,52% and 43%,
RNA1{[moe](G)[sp].[moe](T)[sp].[moe](T)[sp].[moe](C)[sp].d(C)[sp].d(G)[sp].d(C)[sp].d(A)[sp].d(G)[sp].d(T)[sp].d(A)[sp].d(T)[sp].d(G)[sp].[moe](G)[sp].[moe](A)[sp].[moe](T)}$$$$V2.0,57% and 45%,
RNA1{[moe](G)[sp].[moe](T)[sp].d(G)[sp].d(A)[sp].d(A)[sp].d(G)[sp].d(C)[sp].d(G)[sp].d(A)[sp].d(A)[sp].d(G)[sp].[moe](T)[sp].[moe](G)[sp].[moe](C)[sp].[moe](A)[sp].[moe](C)}$$$$V2.0,68% and 60%,
RNA1{[moe](G)[sp].[moe](T)[sp].d(G)[sp].d(C)[sp].d(A)[sp].d(G)[sp].d(A)[sp].d(G)[sp].d(G)[sp].d(T)[sp].d(G)[sp].[moe](A)[sp].[moe](A)[sp].[moe](G)[sp].[moe](C)[sp].[moe](G)[sp].[moe](A)}$$$$V2.0,70% and 66%,
